Where a name gives a salt, the structure may show the parent alone. Read-outs that look alike come from different tables or passages of the source.
How the values were obtained:
muscarinic receptors [1] = experiment: Radio ligand binding, displacement of muscarinic agonist 3H-Oxotremorine-M (3H-OXO-M); parameters: species or system rat (Hooded Lister); conditions: displacement of 2 nM 3H-OXO-M, rat cerebral cortex homogenate, 37° C., 30 min, 2 mM magnesium chloride
muscarinic receptors [2] = assay type: binding, rat (Hooded Lister); conditions: displacement of 0.27 nM 3H-QNB, rat cerebral cortex homogenate, 37° C., 30 min

Structure (SMILES)	IC50 (muscarinic receptors [1]) [µM]	IC50 (muscarinic receptors [2]) [µM]
CON=CC12CCCN(CC1)C2 (mixture of isomers) [E 1, (±) syn-1-Azabicyclo[3,2,1]oct-5-ylcarboxaldehyde, O-methyloxime hydrochloride salt]	0.073	5.2
CON=C(C)C1CN2CCC1CC2 (mixture of isomers) [E 3, (±) trans-3-Acetyl-1-azabicyclo[2.2.21octane-O-methyloxime hydrochloride salt]	0.069	2
C#CCON=C(C)C1CN2CCC1C2 (mixture of isomers) [E 15, (±)exo-3-Acetyl-1-azabicyclo2.2.1]heptane-trans-O-proparqyloxime hydrochloride salt]	0.219	3.9
CCC(=NOC)C1CN2CCC1C2 (mixture of isomers) [E 16, (±)exo-3-Propan-1-one-1-azabicyclo2.2.11heptane-trans-O-methyloxime hydrochloride salt]	0.204	3.4
CON=CC1CN2CCC1CC2 (racemic) [E 2, (±) 1-Azabicyclo[2.2.2]oct-3-ylcarboxaldehyde, O-methyloxime hydrochloride salt]	0.095	10
CON=C(C)C12CCCN(CC1)C2 (racemic) [E 6, (±) trans-5-Acetyl-1-azabicyclo[3.2.1]octane-O-methyloxime hydrochloride salt]	0.046	4.4
CON=C(C)C1CN2CCC1C2 (racemic) [E 13, (±)exo-3-Acetyl-1-azabicyclo[2.2.1]heptane-trans-O-methyloxime oxalate salt]	0.099	9
C#CCON=CC1CN2CCC1CC2 (racemic) [E 17, (±)1-Azabicyclo[2.2.21oct-3-ylcarboxaldehyde, O-proparqyloxime hydrochloride salt]	0.19	2.45
CON=C(C)C1CC2CCN(C2)C1 (racemic) [E 24, (±)exo-3-Acetyl-1-azabicyclo[3.2.1]octane-trans-O-methyloxime hydrochloride salt]	0.32	7.3
CON=C[C@@H]1CN2CC[C@@H]1C2 (relative stereo) [E 7, (±) exo-1-Azabicyclo[2.2.1]hept-3-ylcarboxaldehyde, O-methyloxime oxalate salt]	0.014	4.8
CCON=C[C@@H]1CN2CC[C@@H]1C2 (relative stereo) [E 8, (±) exo-1-Azabicyclo[2.2.1]hept-3-ylcarboxaldehyde, O-ethyloxime oxalate salt]	0.16	5.6
C#CCON=C[C@@H]1CN2CC[C@@H]1C2 (relative stereo) [E 9, (±) exo-1-Azabicyclo[2.2.11hept-3-ylcarboxaldehyde, O-proparqyloxime oxalate salt]	0.024	2.7
C=CCON=C[C@@H]1CN2CC[C@@H]1C2 (relative stereo) [E 22, (±)exo-1-Azabicyclo2.2.1]hept-3-ylcarboxaldehyde, O-allyloxime oxalate salt]	0.215	8.5
CON=C[C@H]1C[C@@H]2CCN(C1)C2 (relative stereo) [E 23, (±)exo-1-Azabicyclo[3.2.11oct-3-ylcarboxaldehyde, O-methyloxime hydrochloride salt]	0.24	5.57
CON=CC12CCN(CC1)C2 [E 19, syn-1-Azabicyclo[2.2.1]hept-4-ylcarboxaldehyde, O-methyloxime hydrochloride salt]	0.118	40
CON=C(C)C12CCN(CC1)C2 [E 20, 4-Acetyl-1-azabicyclo[2.2.1]heptane-O-methyloxime oxalate salt]	0.055	12.5
C#CCON=CC12CCN(CC1)C2 [E 21, syn-1-Azabicyclo[2.2.11hect-4-ylcarboxaldehyde, O-proparqyloxime oxalate salt]	0.352	21
